Laboratory results: patent publication US20170304355A1, “COMPOSITIONS AND METHODS OF USE THEREOF” (priority 2014, published 2017)
Where two headings read alike, the source gives them in different places.

Experiments:
MRSA = assay: Broth microdilution checkerboard assay, PAAG and oxacillin; assay type: cell-based, Staphylococcus aureus; conditions: for MIC: Staphylococcus aureus, MRSA
Description: (§1) Checkerboard and time kill bactericidal studies of mupriocin, methicillin-resistant Staphylococcus aureus strains 2-4C and 2-9A were completed as part of the synergy studies to evaluate potentiation of […] by PAAG (25% functionalized, 43 kDa). Synergistic relationships between PAAG and oxacillin were examined in vitro using the broth microdilution checkerboard assay in 96-well microtiter plates. Serial two-fold dilutions of PAAG and oxacillin were placed in each well with approximately 1×10^5 CFU/ml of S. aureus. Each plate was incubated 20 hours. The MIC was determined as the lowest concentration where no visible bacterial growth was observed. […] Controls for bacterial growth and sterility were included. The FIC for each strain was calculated. The FIC is an interaction coefficient indicating whether the combined inhibitory/bacteristatic effect of drugs is synergistic (FIC of 0.5 or less), additive ([…]), or antagonistic (FIC>4). The FIC is =A+B, where: A=(MIC of X with Y)/(MIC of drug X alone) and B=(MIC of Y with X)/(MIC of drug Y alone). The time-kill assay (vCFU) was performed using the microdilution technique. Approximately 1×10^5 CFU/ml of each bacteria tested was tested against mupriocin alone and in combination. Concentrations of PAAG tested were ½-⅛×MIC. The vCFU was determined after 24 hours treatment using the microtiter technique (8).

MRSA strain SA5 = assay: Minimal Biofilm Inhibitory Concentration (MBIC) assay; assay type: cell-based, Staphylococcus aureus
Protocol: (§2) Each isolate was taken from the −80° C. freezer stock and grown for approximately 20 hours in LB Broth at 37° C. shaking water bath. […] The antibiotics and PAAG (22.4% functionalization, 36.9 kDa, 89.74 DDA, 1.63 PDI) were prepared similar to a checkerboard assay (2× concentration to accommodate addition of culture) in MH broth, in a sterile flat-bottomed 96-well plate. For MRSA strain SA5, the PAAG concentrations tested were 0-128 ug/ml. The vancomycin concentrations tested were 0-4 ug/ml. […] The tobramycin concentrations tested were 0-4 ug/ml. Plates were incubated in a 37° C. incubator.
(§3) The fractional inhibitory concentration (FIC) was calculated as; FIC calculation: […]
(§4) and the FIC relationship was defined as; Synergy: FIC≦0.5; Additive: 0.5<FIC≦1.0; or Indifferent: FIC>1.0.

[1] = test system: clinical isolates of P. aeruginosa; assay: Checkerboard assay, PAAG and tobramycin; assay type: cell-based; conditions: Pseudomonas aeruginosa
Protocol: Two independent checkerboard assays screened 64 unique combinations of antimicrobial concentrations in duplicate. […] Bacteria were incubated at 37° C. for 20 hours. The MIC was determined as the lowest concentration with no visible bacterial growth observed.

[2] = test system: P. aeruginosa strain SUS116; assay: Minimal Biofilm Inhibitory Concentration (MBIC) assay; assay type: cell-based; conditions: for MBIC Tobramycin: alone
Protocol: as §2, §3, §4

[3] = test system: P. aeruginosa strain PA01; assay: Checkerboard assay, various PAAG's and tobramycin; assay type: cell-based; conditions: Pseudomonas aeruginosa
[4] = test system: mupirocin-resistant MRSA strains 2-4C and 2-9A; assay: Time-kill assay (vCFU), PAAG and mupirocin; assay type: cell-based, Staphylococcus aureus; conditions: 24-hours
Description: as §1

Cc1onc(-c2ccccc2)c1C(=O)N[C@@H]1C(=O)N2[C@@H]1SC(C)(C)[C@@H]2C(=O)O [OXA, oxacillin] was tested, and the MIC (MRSA; all strains, alone, read-out: MIC oxacillin) was ≥ 4 µg/mL, the MIC (MRSA; strain 2-1A, alone, read-out: MIC OXA) was 8 µg/mL and the MIC (MRSA; strain 2-1A, read-out: MIC OXA with PAAG) was 1 µg/mL. It also gave an MIC (MRSA; strain 2-4C, alone, read-out: MIC OXA) of 16 µg/mL, an MIC (MRSA; strain 2-4C, read-out: MIC OXA with PAAG) of 2 µg/mL and an MIC (MRSA; strain 2-9A, alone, read-out: MIC OXA) of 8 µg/mL. For the same compound, the MIC (MRSA; strain 2-9A, read-out: MIC OXA with PAAG) was 0.5 µg/mL, the MIC (MRSA; strain MW-2, alone, read-out: MIC OXA) was 4 µg/mL and the MIC (MRSA; strain MW-2, read-out: MIC OXA with PAAG) was 1 µg/mL. The MIC (MRSA; strain SA05, alone, read-out: MIC OXA) was 4 µg/mL, the MIC (MRSA; strain SA05, read-out: MIC OXA with PAAG) was 1 µg/mL and the “MIC of oxacillin after addition of PAAG (susceptible range)” value (MRSA; all strains, PAAG at 2, 8 or 16 μg/ml) was ≥ 2 µg/mL.

CN[C@H](CC(C)C)C(=O)N[C@H]1C(=O)N[C@@H](CC(N)=O)C(=O)N[C@H]2C(=O)N[C@H]3C(=O)N[C@H](C(=O)N[C@H](C(=O)O)c4cc(O)cc(O)c4-c4cc3ccc4O)[C@H](O)c3ccc(c(Cl)c3)Oc3cc2cc(c3O[C@@H]2O[C@H](CO)[C@@H](O)[C@H](O)[C@H]2O[C@H]2C[C@](C)(N)[C@H](O)[C@H](C)O2)Oc2ccc(cc2Cl)[C@H]1O [Vancomycin] was tested, and the “MBIC Vancomycin” value (MRSA strain SA5; alone) was 2 µg/mL and the “MBIC Vancomycin (with PAAG)” value (MRSA strain SA5; in combination with PAAG) was 1 µg/mL.

With NC[C@H]1O[C@H](O[C@H]2[C@H](O)[C@@H](O[C@H]3O[C@H](CO)[C@@H](O)[C@H](N)[C@H]3O)[C@H](N)C[C@@H]2N)[C@H](N)C[C@@H]1O [Tobramycin] the MIC ([1]; strain AMT-32-4, alone, read-out: MIC Tobramycin) was 0.31 µg/mL, the MIC ([1]; strain AMT-32-4, read-out: MIC Tobramycin (with PAAG)) was 0.13 µg/mL and the MIC ([1]; strain MR29, alone, read-out: MIC Tobramycin) was 0.31 µg/mL. The MIC ([1]; strain MR29, read-out: MIC Tobramycin (with PAAG)) was 0.25 µg/mL, the MIC ([1]; strain MR 51, alone, read-out: MIC Tobramycin) was 0.31 µg/mL and the MIC ([1]; strain MR 51, read-out: MIC Tobramycin (with PAAG)) was 0.13 µg/mL. The MIC ([1]; strain PA01, alone, read-out: MIC Tobramycin) was 0.31 µg/mL, the MIC ([1]; strain PA01, read-out: MIC Tobramycin (with PAAG)) was 0.13 µg/mL and the MIC ([1]; strain SUS 116, alone, read-out: MIC Tobramycin) was 1.25 µg/mL. The MIC ([1]; strain SUS 116, read-out: MIC Tobramycin (with PAAG)) was 0.13 µg/mL, the “MBIC Tobramycin” value ([2]; PAAG and tobramycin table (TABLE 2)) was 6.25 µg/mL and the “MBIC Tobramycin” value ([2]; column of the PAAG and aztreonam table (TABLE 1)) was 2 µg/mL. For the same compound, the “MBIC Tobramycin (with PAAG)” value ([2]; in combination with PAAG) was 2 µg/mL, the MIC ([3]; PA01, alone, assay run with PAAG^1, read-out: MIC Tobramycin) was 1 µg/mL and the MIC ([3]; PA01, alone, assay run with PAAG^2, read-out: MIC Tobramycin) was 0.5 µg/mL. It also gave an MIC ([3]; PA01, alone, assay run with PAAG^3, read-out: MIC Tobramycin) of 0.5 µg/mL, an MIC ([3]; PA01, with PAAG^1 (27%, 32 kDa), read-out: MIC Tobramycin (with PAAG)) of 0.031 µg/mL and an MIC ([3]; PA01, with PAAG^2 (31%, 54 kDa), read-out: MIC Tobramycin (with PAAG)) of 0.031 µg/mL. For the same compound, the MIC ([3]; PA01, with PAAG^3 (25%, 40 kDa), read-out: MIC Tobramycin (with PAAG)) was 0.063 µg/mL.

With C[C@H]1[C@H](NC(=O)/C(=N\OC(C)(C)C(=O)O)c2csc(N)n2)C(=O)N1S(=O)(=O)O [Aztreonam] the “MBIC Aztreonam (with PAAG)” value ([2]; in combination with PAAG) was 0.06 µg/mL.

C/C(=C\C(=O)OCCCCCCCCC(=O)O)C[C@@H]1OC[C@H](C[C@@H]2O[C@H]2[C@@H](C)[C@H](C)O)[C@@H](O)[C@H]1O [Mup, mupirocin] was tested, and the “Log10 reduction (CFU/ml)” value ([4]; strain 2-4C, Mup 8 μg/ml alone) was 0 Log10 CFU/ml and the “Log10 reduction (CFU/ml)” value ([4]; strain 2-9A, Mup 4 μg/ml alone) was 0 Log10 CFU/ml.
